Our source for the IC50 values is patent US9580416B2, “Inhibitors of Bruton's tyrosine kinase” (PHARMACYCLICS LLC, priority 2014, dated 2017).

Holding throughout (format): biochemical
In assay [1] the target is EGFR (Homo sapiens, UniProt P00533). Put plainly: Inhibition of a panel of kinases, in vitro HotSpot kinase assay: EGFR. As to the method:
The degree of inhibition of a panel of kinases is determined using the in vitro HotSpot kinase assay (purified enzymes, ^33P-ATP, an appropriate substrate and 1 uM ATP).

Assay [2] addresses Lck (Homo sapiens, UniProt P06239). Put plainly: Lck kinase activity, TR-FRET assay. To be noted: read-out: LCK (IC50). On the procedure: (§1) Btk kinase activity is determined using a time-resolved fluorescence resonance energy transfer (TR-FRET) methodology. Measurements are performed in a reaction volume of 50 μL using 96-well assay plates. Kinase enzyme, inhibitor, ATP (at the Km for the kinase), and 1 […] (Biotin-AVLESEEELYSSARQ-NH2) are incubated in a reaction buffer composed of 20 mM Tris, 50 mM NaCl, MgCl2 (5-25 mM depending on the kinase), MnCl2 (0-10 mM), 1 mM DTT, 0.1 mM EDTA, 0.01% bovine serum albumin, 0.005% Tween-20, and 10% DMSO at pH 7.4 for one hour. The reaction is quenched by the addition of 1.2 equivalents of EDTA (relative to divalent cation) in 25 μL of 1× Lance buffer (Perkin-Elmer). Streptavidin-APC (Perkin-Elmer) and Eu-labeled p-Tyr100 antibody (Perkin-Elmer) in 1× Lance buffer are added in a 25 μL volume to give final concentrations of 100 nM and 2.5 nM, respectively, and the mixture is allowed to incubate for one hour. The TR-FRET signal is measured on a multimode plate reader with an excitation wavelength (λEx) of 330 nm and detection wavelengths (λEm) of 615 and 665 nm. Activity is determined by the ratio of the fluorescence at 665 nm to that at 615 nm. For each compound, enzyme activity is measured at various concentrations of compound. Negative control reactions are performed in the absence of inhibitor in replicates of six, and two no-enzyme controls are used to determine baseline fluorescence levels. Inhibition constants, Ki(app), ware obtained using the program BatchKi (Kuzmic et al. (2000), Anal. Biochem. 286:45-50). IC50s are obtained according to the equation: IC50={Ki(app)/(1+[ATP]/Km^ATP)}+[E]total/2;
(§2) For all kinases, [ATP]=Km^ATP, [Btk]total=0.5 nM and [Lck]total=6 nM.

In assay [3] the target is Btk (Homo sapiens, UniProt Q06187). Put plainly: Btk kinase activity, TR-FRET assay. To be noted: read-out: Btk (IC50). On the procedure: as §1, §2
Btk, sequence (Q06187 whole entry): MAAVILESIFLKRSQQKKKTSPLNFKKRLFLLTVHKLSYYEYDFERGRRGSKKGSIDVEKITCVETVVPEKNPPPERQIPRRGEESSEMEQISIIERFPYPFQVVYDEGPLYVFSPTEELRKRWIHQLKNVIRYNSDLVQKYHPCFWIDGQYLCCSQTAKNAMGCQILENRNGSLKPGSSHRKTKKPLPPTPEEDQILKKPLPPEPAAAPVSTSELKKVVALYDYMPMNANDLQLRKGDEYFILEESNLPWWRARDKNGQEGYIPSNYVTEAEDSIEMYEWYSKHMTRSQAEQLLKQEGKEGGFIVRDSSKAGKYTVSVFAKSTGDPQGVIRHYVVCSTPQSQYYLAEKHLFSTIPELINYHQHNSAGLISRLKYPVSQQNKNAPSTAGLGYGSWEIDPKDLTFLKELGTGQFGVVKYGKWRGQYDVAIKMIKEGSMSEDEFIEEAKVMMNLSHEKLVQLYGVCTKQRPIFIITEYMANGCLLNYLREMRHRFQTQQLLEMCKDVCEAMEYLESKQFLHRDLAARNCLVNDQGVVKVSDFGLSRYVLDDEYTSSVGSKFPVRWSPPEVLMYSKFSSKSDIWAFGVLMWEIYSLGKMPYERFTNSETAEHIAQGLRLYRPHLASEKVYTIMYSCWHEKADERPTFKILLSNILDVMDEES
On the technique in general: Time-resolved FRET reads energy transfer from a long-lived donor to a nearby acceptor.

SMILES strings stand for the structures.

EGFR, sequence (P00533 25-1210): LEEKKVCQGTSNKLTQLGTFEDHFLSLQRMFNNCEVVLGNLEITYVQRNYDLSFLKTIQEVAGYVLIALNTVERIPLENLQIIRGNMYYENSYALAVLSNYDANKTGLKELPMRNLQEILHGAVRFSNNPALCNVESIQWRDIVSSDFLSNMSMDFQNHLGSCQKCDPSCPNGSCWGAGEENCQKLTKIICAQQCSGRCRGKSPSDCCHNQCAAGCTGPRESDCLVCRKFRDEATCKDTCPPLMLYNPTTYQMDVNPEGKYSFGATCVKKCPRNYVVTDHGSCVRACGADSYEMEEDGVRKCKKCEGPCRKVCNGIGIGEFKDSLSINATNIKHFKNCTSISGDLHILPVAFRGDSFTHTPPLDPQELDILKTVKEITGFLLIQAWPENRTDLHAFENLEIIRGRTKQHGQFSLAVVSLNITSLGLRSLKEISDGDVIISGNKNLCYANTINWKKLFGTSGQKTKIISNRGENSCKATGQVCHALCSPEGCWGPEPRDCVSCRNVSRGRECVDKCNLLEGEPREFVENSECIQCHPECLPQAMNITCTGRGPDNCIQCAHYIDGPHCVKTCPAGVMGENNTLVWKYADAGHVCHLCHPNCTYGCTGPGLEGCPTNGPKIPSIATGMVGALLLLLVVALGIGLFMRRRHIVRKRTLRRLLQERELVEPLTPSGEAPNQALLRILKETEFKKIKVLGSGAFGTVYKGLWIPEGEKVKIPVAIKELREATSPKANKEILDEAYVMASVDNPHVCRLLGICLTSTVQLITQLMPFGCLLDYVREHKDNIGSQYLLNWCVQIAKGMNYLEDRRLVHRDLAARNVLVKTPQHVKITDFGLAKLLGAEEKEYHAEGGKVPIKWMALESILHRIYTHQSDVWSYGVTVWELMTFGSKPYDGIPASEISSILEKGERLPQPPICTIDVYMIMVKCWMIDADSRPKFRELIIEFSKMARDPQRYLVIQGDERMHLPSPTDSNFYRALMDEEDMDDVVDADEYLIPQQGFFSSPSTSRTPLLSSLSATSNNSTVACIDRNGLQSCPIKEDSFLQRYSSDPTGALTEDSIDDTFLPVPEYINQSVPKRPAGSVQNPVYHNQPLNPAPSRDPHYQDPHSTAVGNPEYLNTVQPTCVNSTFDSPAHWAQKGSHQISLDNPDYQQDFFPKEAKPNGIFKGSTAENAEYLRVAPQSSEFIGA
Lck, sequence (P06239 whole entry, species assumed): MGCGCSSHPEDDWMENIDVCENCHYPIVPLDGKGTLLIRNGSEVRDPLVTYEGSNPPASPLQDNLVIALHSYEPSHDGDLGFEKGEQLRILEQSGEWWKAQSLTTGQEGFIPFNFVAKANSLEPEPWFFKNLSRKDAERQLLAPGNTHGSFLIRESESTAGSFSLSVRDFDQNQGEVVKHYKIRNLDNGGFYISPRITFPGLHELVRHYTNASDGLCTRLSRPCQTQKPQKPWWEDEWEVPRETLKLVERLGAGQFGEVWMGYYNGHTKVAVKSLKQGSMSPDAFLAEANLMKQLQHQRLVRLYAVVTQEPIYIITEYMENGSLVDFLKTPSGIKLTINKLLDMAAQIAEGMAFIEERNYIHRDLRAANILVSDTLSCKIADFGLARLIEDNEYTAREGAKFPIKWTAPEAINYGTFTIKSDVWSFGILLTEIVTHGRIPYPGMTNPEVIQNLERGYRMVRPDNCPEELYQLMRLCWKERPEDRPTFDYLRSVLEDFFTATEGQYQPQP

For orientation: IC50 means the concentration that inhibits the measured activity by half. In the case of `CN(C)C/C=C/C(=O)N1CC[C@@H](Nc2n[nH]c3nccc(Oc4ccc(Cl)cc4)c23)C1` [compound 3, (2E)-1-[(3R)-{[4-(4-chlorophenoxy)-1H-pyrazolo[3,4-b]pyridin-3-yl]amino}pyrrolidin-1-yl]-4-(dimethylamino)but-2-en-1-one], the IC50 in assay [1] was 100 to 1000 nM; in assay [2], greater than 10000 nM; in assay [3], less than 100 nM.

With `C=CC(=O)N1CC[C@@H](Nc2c[nH]c3nccc(Oc4ccc(Cl)cc4)c23)C1` [compound 7, 1-[(3R)-3-{[4-(4-chlorophenoxy)-1H-pyrrolo[2,3-b]pyridin-3-yl]amino}pyrrolidin-1-yl]prop-2-en-1-one], the IC50 was 1000 to 10000 nM in assay [1], 1000 to 10000 nM in assay [2] and less than 100 nM in assay [3].

With `CN(C/C=C/C(=O)N1CC[C@@H](Nc2n[nH]c3nccc(Oc4ccc(Oc5ccccc5)cc4)c23)C1)C1CC1` [compound 10, (2E)-4-[cyclopropyl(methyl)amino]-1-[(3R)-3-{[4-(4-phenoxyphenoxy)-1H-pyrazolo[3,4-b]pyridin-3-yl]amino}pyrrolidin-1-yl]but-2-en-1-one], the half-inhibitory concentration (IC50) in assay [1] is 100 to 1000 nM; in assay [2], less than 100 nM; in assay [3] it was less than 100 nM.

As to `CN(C/C=C/C(=O)N1CC[C@@H](Nc2n[nH]c3nccc(Oc4cccc(Oc5ccccc5)c4)c23)C1)C1CC1` [compound 11, (2E)-4-[cyclopropyl(methyl)amino]-1-[(3R)-3-{[4-(3-phenoxyphenoxy)-1H-pyrazolo[3,4-b]pyridin-3-yl]amino}pyrrolidin-1-yl]but-2-en-1-one], the results for the IC50 in assay [1], in assay [2] and in assay [3] were 1000 to 10000 nM, 1000 to 10000 nM and less than 100 nM, respectively.

For the compound `CN(C)C/C=C/C(=O)N1CC[C@@H](Nc2n[nH]c3nccc(Oc4cccc(Oc5ccccc5)c4)c23)C1` [compound 12, (2E)-4-(dimethylamino)-1-[(3R)-3-{[4-(3-phenoxyphenoxy)-1H-pyrazolo[3,4-b]pyridin-3-yl]amino}pyrrolidin-1-yl]but-2-en-1-one], the IC50 was 1000 to 10000 nM in assay [1], 1000 to 10000 nM in assay [2] and less than 100 nM in assay [3].

For the compound `CN(C)C/C=C/C(=O)N1CCC[C@@H](Nc2n[nH]c3nccc(Oc4cccc(Oc5ccccc5)c4)c23)C1` [compound 13, (2E)-4-(dimethylamino)-1-[(3R)-3-{[4-(3-phenoxyphenoxy)-1H-pyrazolo[3,4-b]pyridin-3-yl]amino}piperidin-1-yl]but-2-en-1-one], the IC50 is 100 to 1000 nM in assay [1], 100 to 1000 nM in assay [2] and less than 100 nM in assay [3].

With `CN(C)C/C=C/C(=O)N1CC[C@@H](Oc2n[nH]c3nccc(Nc4ccc(Oc5ccccc5)cc4)c23)C1` [compound 14, (2E)-4-(dimethylamino)-1-[(3R)-3-({4-[(4-phenoxyphenyl)amino]-1H-pyrazolo[3,4-b]pyridin-3-yl}oxy)pyrrolidin-1-yl]but-2-en-1-one], the half-inhibitory concentration (IC50) in assay [1], in assay [2] and in assay [3] was less than 100 nM in each case.

`CN(C)C/C=C/C(=O)N1CC[C@@H](Nc2n[nH]c3nccc(Oc4ccn(Cc5ccccc5)c(=O)c4)c23)C1` [compound 15, 1-benzyl-4-[(3-{[(3R)-1-[(2E)-4-(dimethylamino)but-2-enoyl]pyrrolidin-3-yl]amino}-1H-pyrazolo[3,4-b]pyridin-4-yl)oxy]-1,2-dihydropyridin-2-one]: the IC50 in assay [1] was greater than 10000 nM; in assay [2] it was greater than 10000 nM; in assay [3], 100 to 1000 nM.

Regarding `c1ccc(Oc2ccc(Oc3ncnc4[nH]nc(N[C@@H]5CCCNC5)c34)cc2)cc1` [compound 50], the IC50 in assay [1] and in assay [3] was greater than 10000 nM throughout.

As to `N#Cc1ccnc(NC(=O)c2ccc(Oc3ccnc4[nH]nc(N[C@H]5CC[C@H](O)CC5)c34)cc2)c1` [compound 82, N-(4-cyanopyridin-2-yl)-4-[(3-{[(R,4R)-4-hydroxycyclohexyl]amino}-1H-pyrazolo[3,4-b]pyridin-4-yl)oxy]benzamide], the IC50 in assay [2] was 100 to 1000 nM; in assay [3], less than 100 nM.

For `CC1(C(=O)N2CCC[C@@H](Nc3n[nH]c4nccc(Oc5ccc(C(=O)Nc6cc(C#N)ccn6)cc5)c34)C2)COC1` [compound 83, N-(4-cyanopyridin-2-yl)-4-[(3-{[(3R)-1-(3-methyloxetane-3-carbonyl)piperidin-3-yl]amino}-1H-pyrazolo[3,4-b]pyridin-4-yl)oxy]benzamide], the IC50 in assay [2] is 100 to 1000 nM; in assay [3], less than 100 nM.

For `CC1(C(=O)N2CCC[C@@H](Nc3n[nH]c4nccc(Oc5ccc(C(=O)Nc6cc(C(F)(F)F)ccn6)cc5)c34)C2)COC1` [compound 84, 4-[(3-{[(3R)-1-(3-methyloxetane-3-carbonyl)piperidin-3-yl]amino}-1H-pyrazolo[3,4-b]pyridin-4-yl)oxy]-N-[4-(trifluoromethyl)pyridin-2-yl]benzamide], the figures for the half-maximal inhibitory concentration (IC50) in assay [2] and in assay [3] were 100 to 1000 nM and less than 100 nM, respectively.

As for `CC(=O)N1CCN(C(=O)c2cccc(Oc3ccnc4[nH]nc(N[C@@H]5CCCNC5)c34)c2)CC1` [compound 257, (R)-1-(4-(3-(3-(piperidin-3-ylamino)-1H-pyrazolo[3,4-b]pyridin-4-yloxy)benzoyl)piperazin-1-yl)ethanone], in assay [3], the half-inhibitory concentration (IC50) was in the range of 100 to 1000 nM.

Take `Cc1cc(NC(=O)c2cccc(Oc3ccnc4[nH]nc(N[C@@H]5CCCNC5)c34)c2)ccc1C(C)C` [compound 258, (R)—N-(4-isopropyl-3-methylphenyl)-3-(3-(piperidin-3-ylamino)-1H-pyrazolo[3,4-b]pyridin-4-yloxy)benzamide]: the IC50 in assay [3] lay in the range of 100 to 1000 nM.

Consider `Cc1cc(NC(=O)c2cccc(Nc3ccnc4[nH]nc(O[C@@H]5CCCNC5)c34)c2)ccc1C(C)C` [compound 259, (R)—N-(4-isopropyl-3-methylphenyl)-3-(3-(piperidin-3-yloxy)-1H-pyrazolo[3,4-b]pyridin-4-ylamino)benzamide], for which the IC50 in assay [3] was in the range of 100 to 1000 nM.

On to `Cc1cc(NC(=O)c2cccc(Oc3ccnc4[nH]nc(N[C@H]5CCNC5)c34)c2)ccc1C(C)C` [compound 260, (S)—N-(4-isopropyl-3-methylphenyl)-3-(3-(pyrrolidin-3-ylamino)-1H-pyrazolo[3,4-b]pyridin-4-yloxy)benzamide], for which the IC50 in assay [3] is 100 to 1000 nM.

As to `c1ccc(Oc2ccc(Oc3ccnc4[nH]nc(NC5CCNCC5)c34)cc2)cc1` [compound 261], the IC50 in assay [3] was less than 100 nM.

As to `c1ccc(Oc2ccc(Oc3ccnc4[nH]nc(NCC5CCNCC5)c34)cc2)cc1` [compound 262, 4-(4-phenoxyphenoxy)-N-(piperidin-4-ylmethyl)-1H-pyrazolo[3,4-b]pyridin-3-amine], the half-maximal inhibitory concentration (IC50) in assay [3] was 100 to 1000 nM.

For `c1ccc(Oc2ccc(Oc3ccnc4[nH]nc(NC[C@@H]5CCCNC5)c34)cc2)cc1` [compound 263, (R)-4-(4-phenoxyphenoxy)-N-(piperidin-3-ylmethyl)-1H-pyrazolo[3,4-b]pyridin-3-amine], in assay [3], the IC50 was in the range of 100 to 1000 nM.

For the compound `c1ccc(Oc2ccc(Oc3ccnc4[nH]nc(NC[C@H]5CCNC5)c34)cc2)cc1` [compound 264, (S)-4-(4-phenoxyphenoxy)-N-(pyrrolidin-3-ylmethyl)-1H-pyrazolo[3,4-b]pyridin-3-amine], in assay [3], the 50% inhibitory concentration (IC50) lay in the range of 100 to 1000 nM.

Regarding `C=CC(=O)N1CCC(Nc2n[nH]c3nccc(Oc4ccc(Oc5ccccc5)cc4)c23)CC1` [compound 265, 1-(4-(4-(4-phenoxyphenoxy)-1H-pyrazolo[3,4-b]pyridin-3-ylamino)piperidin-1-yl)prop-2-en-1-one], in assay [3], the half-inhibitory concentration (IC50) is less than 100 nM.

For `C=CC(=O)N1CCC(CNc2n[nH]c3nccc(Oc4ccc(Oc5ccccc5)cc4)c23)CC1` [compound 266, 1-(4-((4-(4-phenoxyphenoxy)-1H-pyrazolo[3,4-b]pyridin-3-ylamino)methyl)piperidin-1-yl)prop-2-en-1-one], in assay [3], the IC50 is less than 100 nM.

As to `C=CC(=O)N1CCC[C@@H](CNc2n[nH]c3nccc(Oc4ccc(Oc5ccccc5)cc4)c23)C1` [compound 267, (S)-1-(3-((4-(4-phenoxyphenoxy)-1H-pyrazolo[3,4-b]pyridin-3-ylamino)methyl)piperidin-1-yl)prop-2-en-1-one], in assay [3], the IC50 was less than 100 nM.

Take `C=CC(=O)N1CC[C@H](CNc2n[nH]c3nccc(Oc4ccc(Oc5ccccc5)cc4)c23)C1` [compound 268, (R)-1-(3-((4-(4-phenoxyphenoxy)-1H-pyrazolo[3,4-b]pyridin-3-ylamino)methyl)pyrrolidin-1-yl)prop-2-en-1-one]: the IC50 in assay [3] was less than 100 nM.
